Data reported in patent publication US9738634B2, “Heterocyclic amide compound and herbicide” (SYNGENTA PARTICIPATIONS AG, priority 2013, dated 2017).

Columns and labels:
Type in all cases: in vivo
barnyard grass [1] = assay: Test Example 1: weedkilling efficacy, preemergent weed treatment in the submerged state; A: barnyard grass; settings: treatment dosage 252 g/ha
In short: (§1)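 Pre-emergence paddy test: weed seeds sown in submerged alluvial soil (4 cm water), 2.5-leaf rice transplanted, water-diluted emulsion applied to water surface at sowing at stated g/ha. Scored at 3 weeks, greenhouse 25–30 °C.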

bulrush [2] = assay: Test Example 1: weedkilling efficacy, preemergent weed treatment in the submerged state; B: bulrush; settings: treatment dosage 252 g/ha
In short: as §1

oval-leafed pondweed [3] = assay: Test Example 1: weedkilling efficacy, preemergent weed treatment in the submerged state; C: oval-leafed pondweed; settings: treatment dosage 252 g/ha
In short: as §1

transplanted rice = assay: Test Example 1: preemergent weed treatment in the submerged state, effect on crop; a: transplanted rice; settings: treatment dosage 252 g/ha
In short: as §1

barnyard grass [4] = assay: Test Example 2: weedkilling efficacy, growth period weed treatment in the submerged state; A: barnyard grass; settings: treatment dosage 252 g/ha
In short: (§2)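 Seedlings at 1-2 leaves in 4 cm-deep submerged alluvial soil received emulsion formulations on the water surface, dosed per hectare; effects were judged 3 weeks on.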

bulrush [5] = assay: Test Example 2: weedkilling efficacy, growth period weed treatment in the submerged state; B: bulrush; settings: treatment dosage 252 g/ha
In short: as §2

oval-leafed pondweed [6] = assay: Test Example 2: weedkilling efficacy, growth period weed treatment in the submerged state; C: oval-leafed pondweed; settings: treatment dosage 252 g/ha
In short: as §2

crabgrass [7] = assay: Test Example 3: weedkilling efficacy through soil treatment; D: crabgrass; settings: treatment dosage 315 g/ha
In short: (§3)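 Crop and weed responses were judged three weeks after a uniform surface spray of the water-diluted emulsion at the given g/ha rate. Seeds sat beneath about 1.5 cm of sterilized diluvial soil, and boxes stood in a greenhouse at 25 to 30° C.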

green foxtail [8] = assay: Test Example 3: weedkilling efficacy through soil treatment; E: green foxtail; settings: treatment dosage 315 g/ha
In short: as §3

wild oat [9] = assay: Test Example 3: weedkilling efficacy through soil treatment; G: wild oat; settings: treatment dosage 315 g/ha
In short: as §3

black-grass [10] = assay: Test Example 3: weedkilling efficacy through soil treatment; H: black-grass; settings: treatment dosage 315 g/ha
In short: as §3

Italian ryegrass [11] = assay: Test Example 3: weedkilling efficacy through soil treatment; I: Italian ryegrass; settings: treatment dosage 315 g/ha
In short: as §3

Indian mallow [12] = assay: Test Example 3: weedkilling efficacy through soil treatment; K: Indian mallow; settings: treatment dosage 315 g/ha
In short: as §3

redroot pigweed [13] = assay: Test Example 3: weedkilling efficacy through soil treatment; L: redroot pigweed; settings: treatment dosage 315 g/ha
In short: as §3

fig-leafed goosefoot [14] = assay: Test Example 3: weedkilling efficacy through soil treatment; M: fig-leafed goosefoot; settings: treatment dosage 315 g/ha
In short: as §3

chickweed [15] = assay: Test Example 3: weedkilling efficacy through soil treatment; N: chickweed; settings: treatment dosage 315 g/ha
In short: as §3

birds-eye speedwell = assay: Test Example 3: weedkilling efficacy through soil treatment; p: birds-eye speedwell; settings: treatment dosage 315 g/ha
In short: as §3

directly sown rice [16] = assay: Test Example 3: soil treatment, effect on crop; b: directly sown rice; settings: treatment dosage 315 g/ha
In short: as §3

corn [17] = assay: Test Example 3: soil treatment, effect on crop; c: corn; settings: treatment dosage 315 g/ha
In short: as §3

soybean [18] = assay: Test Example 3: soil treatment, effect on crop; d: soybean; settings: treatment dosage 315 g/ha
In short: as §3

wheat [19] = assay: Test Example 3: soil treatment, effect on crop; e: wheat; settings: treatment dosage 315 g/ha
In short: as §3

beet [20] = assay: Test Example 3: soil treatment, effect on crop; f: beet; settings: treatment dosage 315 g/ha
In short: as §3

crabgrass [21] = assay: Test Example 4: weedkilling efficacy by foliar treatment; D: crabgrass; settings: treatment dosage 315 g/ha
In short: (§4)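 Seeds are spot-sown into sterilized diluvial soil and covered with about 1.5 cm of soil. After 14 days' greenhouse growth at 25 to 30° C, plants are sprayed on stems and leaves with diluted emulsion at the stated g/ha rate, then scored at 3 weeks.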

green foxtail [22] = assay: Test Example 4: weedkilling efficacy by foliar treatment; E: green foxtail; settings: treatment dosage 315 g/ha
In short: as §4

wild oat [23] = assay: Test Example 4: weedkilling efficacy by foliar treatment; G: wild oat; settings: treatment dosage 315 g/ha
Method: Testing of Weedkilling Efficacy by Foliar Treatment
Sterilized diluvial soil was introduced into 21 cm long, 13 cm wide, 7 cm deep plastic boxes, and seeds of crabgrass, green foxtail, barnyard grass, wild oat, black-grass, Italian ryegrass, common wind-grass, Indian mallow, redroot pigweed, fig-leafed goosefoot, chickweed, catchweed, birds-eye speedwell, corn, soybean, rice, wheat, beet and rapeseed were each spot-sown, and covered with about 1.5 cm of soil, then the plants were grown in a greenhouse at 25 to 30° C.
After they had grown for 14 days, emulsions of compounds of the present invention prepared according to compounding example 2 were diluted with water to give the specified dosages, and applied uniformly onto the stem and leaf parts with a small sprayer. 3 weeks after the pesticide treatment the effect on each type of plant was investigated on the basis of the assessment criteria of test example 1.
A: barnyard grass, B: bulrush, C: oval-leafed pondweed, D: crabgrass, E: green foxtail, F: barnyard grass, G: wild oat, H: black-grass, I: Italian ryegrass, J: common wind-grass, K: Indian mallow, L: redroot pigweed, M: fig-leafed goosefoot, N: chickweed, O: catchweed, p: birds-eye speedwell, a: transplanted rice, b: directly sown rice, c: corn, d: soybean, e: wheat, f: beet, g: rapeseed
Further, pesticide dosage (g/ha) indicates the concentration regulated such that treatment was with only the stated number of grams (g), when calculated per hectare (ha).

black-grass [24] = assay: Test Example 4: weedkilling efficacy by foliar treatment; H: black-grass; settings: treatment dosage 315 g/ha
In short: as §4

Italian ryegrass [25] = assay: Test Example 4: weedkilling efficacy by foliar treatment; I: Italian ryegrass; settings: treatment dosage 315 g/ha
In short: as §4

Indian mallow [26] = assay: Test Example 4: weedkilling efficacy by foliar treatment; K: Indian mallow; settings: treatment dosage 315 g/ha
In short: as §4

redroot pigweed [27] = assay: Test Example 4: weedkilling efficacy by foliar treatment; L: redroot pigweed; settings: treatment dosage 315 g/ha
In short: as §4

fig-leafed goosefoot [28] = assay: Test Example 4: weedkilling efficacy by foliar treatment; M: fig-leafed goosefoot; settings: treatment dosage 315 g/ha
In short: as §4

chickweed [29] = assay: Test Example 4: weedkilling efficacy by foliar treatment; N: chickweed; settings: treatment dosage 315 g/ha
In short: as §4

catchweed [30] = assay: Test Example 4: weedkilling efficacy by foliar treatment; O: catchweed; settings: treatment dosage 315 g/ha
In short: as §4

directly sown rice [31] = assay: Test Example 4: foliar treatment, effect on crop; b: directly sown rice; settings: treatment dosage 315 g/ha
In short: as §4

corn [32] = assay: Test Example 4: foliar treatment, effect on crop; c: corn; settings: treatment dosage 315 g/ha
In short: as §4

soybean [33] = assay: Test Example 4: foliar treatment, effect on crop; d: soybean; settings: treatment dosage 315 g/ha
In short: as §4

wheat [34] = assay: Test Example 4: foliar treatment, effect on crop; e: wheat; settings: treatment dosage 315 g/ha
In short: as §4

beet [35] = assay: Test Example 4: foliar treatment, effect on crop; f: beet; settings: treatment dosage 315 g/ha
In short: as §4

catchweed [36] = assay: Test Example 3: weedkilling efficacy through soil treatment; O: catchweed; settings: treatment dosage 315 g/ha
In short: as §3

| SMILES | A (barnyard grass) weedkilling efficacy grade (barnyard grass [1]) | B (bulrush) weedkilling efficacy grade (bulrush [2]) | C (oval-leafed pondweed) weedkilling efficacy grade (oval-leafed pondweed [3]) | a (transplanted rice) effect on crop grade (transplanted rice) | A (barnyard grass) weedkilling efficacy grade (barnyard grass [4]) | B (bulrush) weedkilling efficacy grade (bulrush [5]) | C (oval-leafed pondweed) weedkilling efficacy grade (oval-leafed pondweed [6]) | D (crabgrass) weedkilling efficacy grade (crabgrass [7]) | E (green foxtail) weedkilling efficacy grade (green foxtail [8]) | G (wild oat) weedkilling efficacy grade (wild oat [9]) | H (black-grass) weedkilling efficacy grade (black-grass [10]) | I (Italian ryegrass) weedkilling efficacy grade (Italian ryegrass [11]) | K (Indian mallow) weedkilling efficacy grade (Indian mallow [12]) | L (redroot pigweed) weedkilling efficacy grade (redroot pigweed [13]) | M (fig-leafed goosefoot) weedkilling efficacy grade (fig-leafed goosefoot [14]) | c (corn) effect on crop grade (corn [17]) | d (soybean) effect on crop grade (soybean [18]) | e (wheat) effect on crop grade (wheat [19]) | f (beet) effect on crop grade (beet [20]) | D (crabgrass) weedkilling efficacy grade (crabgrass [21]) | other results |
| --- | --- | --- | --- | --- | --- | --- | --- | --- | --- | --- | --- | --- | --- | --- | --- | --- | --- | --- | --- | --- | --- |
| CC1=C(c2ccccc2)C(=O)N(C(C)(C)C(=O)Nc2cccc(F)n2)CO1 [B-2-27] | 5 (weed kill ratio 90% or more, (practically complete withering)) | 5 (weed kill ratio 90% or more, (practically complete withering)) | 5 (weed kill ratio 90% or more, (practically complete withering)) | 0 (weed kill ratio 5% or less (practically no effect)) | 4 (weed kill ratio 70% or more, less than 90%) | 5 (weed kill ratio 90% or more, (practically complete withering)) | 5 (weed kill ratio 90% or more, (practically complete withering)) | 5 (weed kill ratio 90% or more, (practically complete withering)) | 5 (weed kill ratio 90% or more, (practically complete withering)) | 5 (weed kill ratio 90% or more, (practically complete withering)) | 5 (weed kill ratio 90% or more, (practically complete withering)) | 5 (weed kill ratio 90% or more, (practically complete withering)) | 5 (weed kill ratio 90% or more, (practically complete withering)) | 5 (weed kill ratio 90% or more, (practically complete withering)) | 5 (weed kill ratio 90% or more, (practically complete withering)) | 4 (weed kill ratio 70% or more, less than 90%) | 5 (weed kill ratio 90% or more, (practically complete withering)) | 5 (weed kill ratio 90% or more, (practically complete withering)) | 4 (weed kill ratio 70% or more, less than 90%) | 5 (weed kill ratio 90% or more, (practically complete withering)) | N (chickweed) weedkilling efficacy grade (chickweed [15]): 5 (weed kill ratio 90% or more, (practically complete withering)); P (birds-eye speedwell) weedkilling efficacy grade (birds-eye speedwell): 5 (weed kill ratio 90% or more, (practically complete withering)); b (directly sown rice) effect on crop grade (directly sown rice [16]): 5 (weed kill ratio 90% or more, (practically complete withering)); E (green foxtail) weedkilling efficacy grade (green foxtail [22]): 5 (weed kill ratio 90% or more, (practically complete withering)); G (wild oat) weedkilling efficacy grade (wild oat [23]): 5 (weed kill ratio 90% or more, (practically complete withering)); H (black-grass) weedkilling efficacy grade (black-grass [24]): 5 (weed kill ratio 90% or more, (practically complete withering)); I (Italian ryegrass) weedkilling efficacy grade (Italian ryegrass [25]): 5 (weed kill ratio 90% or more, (practically complete withering)); K (Indian mallow) weedkilling efficacy grade (Indian mallow [26]): 4 (weed kill ratio 70% or more, less than 90%); L (redroot pigweed) weedkilling efficacy grade (redroot pigweed [27]): 4 (weed kill ratio 70% or more, less than 90%); M (fig-leafed goosefoot) weedkilling efficacy grade (fig-leafed goosefoot [28]): 3 (weed kill ratio 40% or more, less than 70%); N (chickweed) weedkilling efficacy grade (chickweed [29]): 4 (weed kill ratio 70% or more, less than 90%); O (catchweed) weedkilling efficacy grade (catchweed [30]): 4 (weed kill ratio 70% or more, less than 90%); b (directly sown rice) effect on crop grade (directly sown rice [31]): 5 (weed kill ratio 90% or more, (practically complete withering)); c (corn) effect on crop grade (corn [32]): 4 (weed kill ratio 70% or more, less than 90%); d (soybean) effect on crop grade (soybean [33]): 4 (weed kill ratio 70% or more, less than 90%); e (wheat) effect on crop grade (wheat [34]): 4 (weed kill ratio 70% or more, less than 90%); f (beet) effect on crop grade (beet [35]): 4 (weed kill ratio 70% or more, less than 90%) |
| CC1=C(c2ccccc2)C(=O)N(C(C)(C)C(=O)Nc2ccnc(C(F)(F)F)c2)CO1 [B-4-06] | 5 (weed kill ratio 90% or more, (practically complete withering)) | 5 (weed kill ratio 90% or more, (practically complete withering)) | 5 (weed kill ratio 90% or more, (practically complete withering)) | 0 (weed kill ratio 5% or less (practically no effect)) | 4 (weed kill ratio 70% or more, less than 90%) | 5 (weed kill ratio 90% or more, (practically complete withering)) | 5 (weed kill ratio 90% or more, (practically complete withering)) | 5 (weed kill ratio 90% or more, (practically complete withering)) | 5 (weed kill ratio 90% or more, (practically complete withering)) | 5 (weed kill ratio 90% or more, (practically complete withering)) | 5 (weed kill ratio 90% or more, (practically complete withering)) | 5 (weed kill ratio 90% or more, (practically complete withering)) | 1 (weed kill ratio 5% or more, less than 20%) | 3 (weed kill ratio 40% or more, less than 70%) | 4 (weed kill ratio 70% or more, less than 90%) | 2 (weed kill ratio 20% or more, less than 40%) | 0 (weed kill ratio 5% or less (practically no effect)) | 3 (weed kill ratio 40% or more, less than 70%) | 4 (weed kill ratio 70% or more, less than 90%) | 5 (weed kill ratio 90% or more, (practically complete withering)) | O (catchweed) weedkilling efficacy grade (catchweed [36]): 4 (weed kill ratio 70% or more, less than 90%); E (green foxtail) weedkilling efficacy grade (green foxtail [22]): 5 (weed kill ratio 90% or more, (practically complete withering)); G (wild oat) weedkilling efficacy grade (wild oat [23]): 5 (weed kill ratio 90% or more, (practically complete withering)); H (black-grass) weedkilling efficacy grade (black-grass [24]): 5 (weed kill ratio 90% or more, (practically complete withering)); I (Italian ryegrass) weedkilling efficacy grade (Italian ryegrass [25]): 5 (weed kill ratio 90% or more, (practically complete withering)); K (Indian mallow) weedkilling efficacy grade (Indian mallow [26]): 3 (weed kill ratio 40% or more, less than 70%); L (redroot pigweed) weedkilling efficacy grade (redroot pigweed [27]): 4 (weed kill ratio 70% or more, less than 90%); M (fig-leafed goosefoot) weedkilling efficacy grade (fig-leafed goosefoot [28]): 4 (weed kill ratio 70% or more, less than 90%); N (chickweed) weedkilling efficacy grade (chickweed [29]): 3 (weed kill ratio 40% or more, less than 70%); O (catchweed) weedkilling efficacy grade (catchweed [30]): 4 (weed kill ratio 70% or more, less than 90%); b (directly sown rice) effect on crop grade (directly sown rice [31]): 5 (weed kill ratio 90% or more, (practically complete withering)); c (corn) effect on crop grade (corn [32]): 5 (weed kill ratio 90% or more, (practically complete withering)); d (soybean) effect on crop grade (soybean [33]): 4 (weed kill ratio 70% or more, less than 90%); e (wheat) effect on crop grade (wheat [34]): 1 (weed kill ratio 5% or more, less than 20%); f (beet) effect on crop grade (beet [35]): 3 (weed kill ratio 40% or more, less than 70%) |
